Consider 13 molecules from PubChem BioAssay (NCI).

Common to all, as to experiment: NCI anticancer screen, dose series, 48 h
Test [1] has as its system MDA-N.
Test [2] has as its system A549 NSCLC.
Test [3] concerns MOLT-4 leukemia.
Test [4] has as its system NCI-H460 lung.
The test system of test [5] is CAKI-1 renal.
Test [6] deals with UACC-257 melanoma.
Test [7] relates to SN12C renal.
Test [8] relates to SW-620 colon.
For test [9], the system named is ACHN renal.
Test [10] relates to M14 melanoma.

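Grown in 96-well plates, cells were treated for 48 hours with each compound at five concentrations. Insufficient inhibition: endpoint recorded as highest concentration tested. TGI denotes the concentration required for complete inhibition of growth.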

As to `COC(=O)[C@H](Cc1ccccc1)NC(=O)c1ccc(CNC(=O)/C=C/c2ccc(OCc3ccccc3)cc2)cc1`, the TGI is 5.43 µM in test [1]; more than 72.7 µM in [2]; 28 µM in [3]; more than 100 µM in test [4]; 26 µM in test [5]; 7.33 µM in test [6]. Moreover, the TGI was 32.6 µM in [7], more than 100 µM in [8], 33 µM in test [9] and 7.38 µM in [10].

Take `O=S(=O)(O)c1ccc(N=Nc2ccccc2)cc1`: the TGI in test [1], in test [2], in test [3], in test [4], in test [5] and in test [6] was more than 100 µM throughout. Also, the TGI in test [7], in [8], in test [9] and in [10] was more than 100 µM each time.

As to `CN(O)C(=O)CCC(NC(=O)CCC(N)C(=O)O)C(=O)NCC(=O)O` (stereo not given), the TGI in [1], in test [2], in test [3], in test [4], in test [5] and in test [6] was more than 100 µM in each case. For the same molecule, the TGI in test [7], in test [8], in test [9] and in test [10] was more than 100 µM in each case.

For `S=C(NCc1ccccc1)Nc1sc(=NCc2ccccc2)nc2sc3c(c12)CCN(N1CCc2c(sc4nc(=NCc5ccccc5)sc(NC(=S)NCc5ccccc5)c24)C1)C3`, the TGI was more than 58.2 µM in [1]; more than 62.9 µM in [2]; more than 96.1 µM in test [3]; more than 83.9 µM in test [4]; more than 75.9 µM in [5]; more than 78.4 µM in [6]. Besides, the TGI was more than 52.8 µM in test [7], more than 72.5 µM in test [8], more than 96.4 µM in test [9] and more than 65.4 µM in test [10].

As to `C#CC1(O)CCC2[C@@H]3CCc4cc(Oc5nc(F)nc(-c6c(C)c(C(=O)OCC)n7ccccc67)n5)ccc4C3CC[C@@]21C` (stereo not given in full), the TGI in [1], in test [2], in test [3], in test [4], in test [5] and in test [6] was more than 100 µM each time. Further, the TGI in test [7], in [8], in test [9] and in test [10] was more than 100 µM in each case.

Consider `COc1ccc(/C=N\N(C)Cc2cccc3ccsc23)cc1`, for which the TGI in test [1], in test [2], in test [3], in test [4], in [5] and in [6] was more than 100 µM each time. In addition, the TGI in test [7], in [8], in test [9] and in [10] was more than 100 µM each time.

On to `COc1ccc(S(=O)(=O)Nc2ccc(-c3csc(N4C(=O)/C(=C/c5ccccc5[N+](=O)[O-])N=C4c4ccccc4)n3)cc2)cc1Cl`, for which the TGI in test [1], in test [2], in test [3], in test [4], in [5] and in test [6] was more than 100 µM each time. Besides, the TGI in test [7], in [8], in test [9] and in [10] was more than 100 µM throughout.

As to `Cc1nc(-c2ccccc2)cn2c1nc1ccccc12`, the TGI was 43.5 µM in [1]; 34.8 µM in [2]; more than 100 µM in [3]; 37.1 µM in test [4]; 62.1 µM in [5]; more than 82.3 µM in test [6]. The TGI in test [7] is more than 84.7 µM; in [8], 99.1 µM; in test [9] it was 49.4 µM; in [10] it was more than 82.8 µM.

As for `C#C[C@]1(O)CC[C@H]2[C@@H]3CCC4=C/C(=N\OCCN5CCCCC5)CC[C@]4(C)[C@H]3CC[C@@]21C`, the TGI in test [1] is 4.21 µM; in test [2], 22.7 µM; in test [3] it was 11.6 µM; in test [4] it was 27.4 µM; in test [5], 20.5 µM; in test [6] it was 12.8 µM. Besides, the TGI in test [7] worked out at 19.7 µM; in test [8], 29.9 µM; in test [9] it was 22.5 µM; in test [10], 10.2 µM.

With `CC(C)C1CSC2N1C(=O)C2(OCc1ccccc1)C1CC1` (stereo not given), the TGI in test [1], in [2], in [3], in [4], in [5] and in [6] was more than 100 µM each time. For the same molecule, the TGI in [7], in test [8], in test [9] and in test [10] was more than 100 µM each time.

Turning to `O=C(O)c1nc2cc(Cl)ccc2[nH]c1=O`, the TGI in test [1], in test [2], in test [3], in [4], in [5] and in test [6] was more than 100 µM throughout. The TGI in [7], in test [8], in [9] and in [10] was more than 100 µM throughout.

With `Cn1c(-c2ccco2)ccc1-c1ccc(C=O)o1`, the TGI was more than 100 µM in test [1]; more than 100 µM in test [2]; 74.6 µM in [3]; more than 100 µM in test [4]; 55.2 µM in test [5]; more than 100 µM in [6]. The TGI in test [7], in [8], in [9] and in test [10] was more than 100 µM in each case.

For `CCOC(=O)c1c(O)cn2c1[nH]c1cccc3cccc2c31`, the TGI in test [1], in test [2], in test [3], in test [4], in [5] and in test [6] was more than 100 µM each time. Moreover, the TGI in [7], in test [8], in test [9] and in [10] was more than 100 µM in each case.
